Laboratory results published in the CheMixHub viscosity set.

Assay: xn = mol fraction of the nth substance listed

COC(C)=O + CCCO
viscosity [mPa·s]
Settings | 298.15 K | 313.15 K
101 kPa, x1 = 0.0464 | 1.587 | 1.153
101 kPa, x1 = 0.0999 | 1.295 | 0.965
101 kPa, x1 = 0.1992 | 1.001 | 0.769
101 kPa, x1 = 0.3035 | 0.794 | 0.626
101 kPa, x1 = 0.4028 | 0.654 | 0.529
101 kPa, x1 = 0.5088 | 0.555 | 0.458
101 kPa, x1 = 0.5545 | 0.52 | 0.433
101 kPa, x1 = 0.6022 | 0.49 | 0.411
101 kPa, x1 = 0.7037 | 0.439 | 0.375
101 kPa, x1 = 0.7973 | 0.401 | 0.346
101 kPa, x1 = 0.8988 | 0.39 | 0.341
101 kPa, x1 = 0.9458 | 0.379 | 0.332
101 kPa, x2 = 0.1056 | 0.375 | –
101 kPa, x2 = 0.1987 | 0.399 | –
101 kPa, x2 = 0.298 | 0.432 | –
101 kPa, x2 = 0.3999 | 0.483 | –
101 kPa, x2 = 0.5012 | 0.55 | –
101 kPa, x2 = 0.5963 | 0.644 | –
101 kPa, x2 = 0.6991 | 0.793 | –
101 kPa, x2 = 0.7989 | 1.014 | –
101 kPa, x2 = 0.8845 | 1.306 | –
101.33 kPa, x1 = 0.0504 | 1.667 | –
101.33 kPa, x1 = 0.1935 | 1.074 | –
101.33 kPa, x1 = 0.3023 | 0.817 | –
101.33 kPa, x1 = 0.4167 | 0.654 | –
101.33 kPa, x1 = 0.5497 | 0.544 | –
101.33 kPa, x1 = 0.6021 | 0.509 | –
101.33 kPa, x1 = 0.6703 | 0.48 | –
101.33 kPa, x1 = 0.7809 | 0.439 | –
101.33 kPa, x1 = 0.8648 | 0.409 | –

COCCOC + CCCO
viscosity [mPa·s]
Settings | 298.15 K | 308.15 K
101 kPa, x1 = 0.0072 | 1.874 | 1.467
101 kPa, x1 = 0.01 | 1.864 | 1.448
101 kPa, x1 = 0.0347 | 1.697 | 1.336
101 kPa, x1 = 0.0524 | 1.598 | 1.274
101 kPa, x1 = 0.06899 | 1.588 | –
101 kPa, x1 = 0.0834 | 1.443 | 1.16
101 kPa, x1 = 0.1171 | 1.304 | 1.055
101 kPa, x1 = 0.1378 | 1.223 | 1.008
101 kPa, x1 = 0.1429 | 1.264 | –
101 kPa, x1 = 0.1976 | 1.05 | 0.902
101 kPa, x1 = 0.2223 | 1.056 | –
101 kPa, x1 = 0.2436 | 0.946 | 0.816
101 kPa, x1 = 0.2925 | 0.879 | 0.741
101 kPa, x1 = 0.3078 | 0.8591 | –
101 kPa, x1 = 0.3507 | 0.807 | 0.682
101 kPa, x1 = 0.4001 | 0.7303 | –
101 kPa, x1 = 0.4082 | 0.747 | 0.645
101 kPa, x1 = 0.4355 | 0.695 | 0.622
101 kPa, x1 = 0.4665 | 0.684 | 0.601
101 kPa, x1 = 0.5001 | 0.6269 | –
101 kPa, x1 = 0.5064 | 0.635 | 0.579
101 kPa, x1 = 0.5539 | 0.604 | 0.557
101 kPa, x1 = 0.605 | 0.573 | 0.533
101 kPa, x1 = 0.6088 | 0.5528 | –
101 kPa, x1 = 0.6728 | 0.54 | 0.508
101 kPa, x1 = 0.7247 | 0.519 | 0.495
101 kPa, x1 = 0.7273 | 0.4945 | –
101 kPa, x1 = 0.7669 | 0.503 | 0.483
101 kPa, x1 = 0.8206 | 0.488 | 0.475
101 kPa, x1 = 0.8572 | 0.4482 | –
101 kPa, x1 = 0.8747 | 0.473 | 0.479
101 kPa, x1 = 0.9605 | 0.461 | 0.45
101 kPa, x2 = 0.0061 | 0.452 | 0.448
101.33 kPa, x1 = 0.0095 | 1.881 | –
101.33 kPa, x1 = 0.0215 | 1.798 | –
101.33 kPa, x1 = 0.0405 | 1.678 | –
101.33 kPa, x1 = 0.0628 | 1.552 | –
101.33 kPa, x1 = 0.0941 | 1.397 | –
101.33 kPa, x1 = 0.1096 | 1.329 | –
101.33 kPa, x1 = 0.1355 | 1.228 | –
101.33 kPa, x1 = 0.1741 | 1.109 | –
101.33 kPa, x1 = 0.2034 | 1.024 | –
101.33 kPa, x1 = 0.2436 | 0.942 | –
101.33 kPa, x1 = 0.2926 | 0.842 | –
101.33 kPa, x1 = 0.3474 | 0.764 | –
101.33 kPa, x1 = 0.3848 | 0.722 | –
101.33 kPa, x1 = 0.4255 | 0.678 | –
101.33 kPa, x1 = 0.4764 | 0.636 | –
101.33 kPa, x1 = 0.5241 | 0.6 | –
101.33 kPa, x1 = 0.57 | 0.572 | –
101.33 kPa, x1 = 0.6239 | 0.536 | –
101.33 kPa, x1 = 0.6795 | 0.509 | –
101.33 kPa, x1 = 0.7142 | 0.495 | –
101.33 kPa, x1 = 0.7632 | 0.476 | –
101.33 kPa, x1 = 0.8198 | 0.459 | –
101.33 kPa, x1 = 0.8625 | 0.447 | –
101.33 kPa, x1 = 0.9004 | 0.439 | –
101.33 kPa, x1 = 0.9269 | 0.435 | –
101.33 kPa, x1 = 0.959 | 0.427 | –
101.33 kPa, x2 = 0.0158 | 0.424 | –
